Values quoted from earlier work, collected in patent US5989558A, “Method of using rosmarinus officinalis for treating various diseases” (priority 1997, dated 1999).
Read-outs that look alike come from different tables or passages of the source.

Legend:
[1] = 400 mg three times a day

| SMILES | nausea as side effect (in vivo) | ulcers healed ([1]; after 60 days) [ulcers] | further ulcer healed ([1]; after 120 days) | patients able to complete the six month program ([1]; of 12 patients, limited by side effects) [patients] | ulcer size reduction ([1]; one ulcer, after six months) | nausea as side effect (treatment of dizziness, poor hearing, and tinnitus) |
| --- | --- | --- | --- | --- | --- | --- |
| CC(=O)CCCCn1c(=O)c2c(ncn2C)n(C)c1=O [pentoxifylline] | all of the drugs cause nausea | 7 | Another ulcer healed after 120 days | 9 | reduced in size from 4 cm to 2 cm |  |
| Fc1ccc(C(c2ccc(F)cc2)N2CCN(C/C=C/c3ccccc3)CC2)cc1 [flunarizine] |  |  |  |  |  | all of the drugs cause nausea |
